The values that follow come from PMC7570620, “Synthesis and Evaluation of the Antitumor Activity of Novel 1-(4-Substituted phenyl)-2-ethyl Imidazole Apoptosis Inducers In Vitro” (Molecules, 2020).

For series [1], the system named is lung and liver cancer cells. Briefly: Preliminary in vitro antitumor activity of lead compounds I and II. The format is cell-based. Particulars: preliminary work of this paper; Figure 2. An excerpt: To identify new apoptosis-inducing candidates, we attempted to modify the structure of imidazole and its analogs. Imidazole and the related azole moiety are significant pharmacophores in various clinical drugs including antitumor agents. […] The antitumor potency of Tanshinone-IIA has been enhanced by the introduction of an imidazole moiety (Figure 1, TA12) in order to block cancer cell invasion and metastasis in vivo [16]. […] Previously, we reported a series of imidazole-fused quinoline compound I and its open-chain analogue compound II, 2-ethyl-1-phenyl-1H-imidazole (Figure 2). […] We speculated that its flexible structure caused this difference in antitumor activity. However, both their antitumor activities were not strong enough as a potent antitumor agent. So, using compound II as a lead, we designed and synthesized several structurally modified derivatives. The effects of LogP and hydrogen bonds on bioavailability were considered, and several aliphatic and aromatic amines were selected and linked to the 1-phenyl imidazole scaffold using a succinyl group as a cross-linker. This approach yielded several novel imidazole derivatives with cLogP values ranging from 1.99 to 4.34.
Figure 2 Title compounds design. Yellow: pharmacophore and Blue: aliphatic/aromatic amine. TEXT PRINTED IN THE PICTURE: I: 300 uM< IC50 < 500 uM | II: 100 uM < IC50 < 300 uM

The next series concerns SGC-7901. The series is described as follows: MTT cell viability assay, SGC-7901. The format is cell-based. Particulars: Homo sapiens, 24 h incubation, mean ± SD, n = 4. On the procedure: (§1) The synthesized compounds were subjected to a cytotoxicity assay using the MTT method, as described previously. IC50 is defined as the drug concentration causing a 50% reduction in cell numbers compared to the untreated control. For screening, we evaluated the effects of the compounds on the growth of three cancer cell lines (A549, SGC-7901, and HeLa). In addition, their toxicities were tested using one normal cell line (L-02). The results are the averages of four separate measurements. MTX and 5-FU served as positive controls.
(§2) The three cancer cell lines namely the human lung cancer cell line (A549), human cervical cancer cell line (HeLa), human gastric carcinoma cell line (SGC-7901), and normal liver cell line (L-02) were acquired from the American Type Culture Collection (Manassas, VA, USA). A549 and SGC-7901 cells were routinely cultured in RPMI-1640. In addition, HeLa and L-02 cells were routinely cultured in DMEM. Media was supplemented with 10% fetal bovine serum (FBS). Cells were maintained at subconfluency at 37 °C in humidified air containing 5% CO2. The cells were monitored daily and maintained at 80% cell density. All compounds tested were dissolved in DMSO and then diluted by the culture medium before the treatment of cultured cells.
(§3) Cytotoxicity of the tested samples was measured against each cell line using the 3-(4,5-dimethylthiazol-2-yl)-2,5-diphenyltetrazolium bromide (MTT) cell viability assay (Maher et al., 2019). Cancer cells (A549, SGC-7901, and HeLa) and L-02 normal cells were harvested during the logarithmic growth phase. All cells were seeded in 96-well plates at 10^4 cells/well and were treated with 5-fluorouracil (5-FU), methotrexate (MTX), and the tested samples for 24 h at final concentrations of […]. Next, 20 µL of freshly prepared MTT (Solarbio) solution (5 mg/mL of MTT in PBS) was added to each well, and the cells were cultured for 4 h at 37 °C. The supernatants were removed and resolved with 100 µL of DMSO, and the cells were shocked for 10 min at 37 °C. The optical density of the samples was measured at 490 nm using a microplate luminometer. Cell viability was expressed as the percentage change in absorbance compared to the control values.
Background: Tetrazolium assays rely on reduction of a dye to a coloured formazan, in cell work by metabolically active cells.

A further series deals with HeLa. The series is described as follows: MTT cell viability assay, HeLa. The format is cell-based. Conditions: Homo sapiens, 24 h incubation, mean ± SD, n = 4. On the procedure: as §1, §2, §3
A further series has as its system L-02. The series is described as follows: MTT cytotoxicity in normal cell line L-02. The format is cell-based. Particulars: for IC50: Homo sapiens, L02, normal cell line L-02, MTT; for Selectivity Index A549: IC50 in normal cells (L-02)/IC50 in tumor cells (A549); for Selectivity Index HeLa: IC50 in normal cells (L-02)/IC50 in tumor cells (HeLa); for Selectivity Index SGC-7901: IC50 in normal cells (L-02)/IC50 in tumor cells (SGC-7901). As to the method:
as §1
The lack of selectivity between normal and cancer cells is one of the primary limitations of antitumor drugs. We evaluated the cytotoxicity of compounds 4c, 4e–4i, 4l, 4m, and 4q in the normal cell line L-02 to determine the selectivity index (defined as the ratio of cytotoxicity in L-02 cells compared to that in cancer cells). […] Compound 4q yielded satisfactory SI values in HeLa and SGC-7901 cells but an unsatisfactory SI value in A549 cells. […] Compound 4f was selected for the subsequent biological studies.
as §2, §3

Another series relates to A549. Briefly: MTT cell viability assay, A549. The format is cell-based. Conditions: Homo sapiens, 24 h incubation, mean ± SD, n = 4. As to the method:
as §1, §2, §3

Series [2] relates to HeLa cells. The series is described as follows: Hoechst/PI double staining apoptosis analysis. The format is cell-based, human. Particulars: 24 h, 4f 3.24 µM (legend: 4 µM), 5-FU 18 µM. On the procedure: Apoptosis and necrosis were analyzed by Hoechst/propidium iodide (CA1120, Solarbio, Beijing, China) double staining. HeLa cells were seeded in six-well plates (10^4 cells/well) and treated with IC50 concentrations of 5-FU or one of the tested derivatives for 0, 3, 6, 12, and 24 h. Next, the cells were collected and washed once in phosphate-buffered saline (PBS). The cells were then resuspended in 195 µL of binding buffer, and dual staining was performed with 3 µL of Hoechst and 3 µL of PI. Next, the cells were incubated for 15 min at room temperature in the dark. Apoptotic cells were analyzed using the EVOS FL Auto Cell Imaging System (Thermo Fisher Scientific, Shanghai, China).
(A) HeLa cells were treated with 4 µM of 4f or 18 µM of 5-FU for 0, 3, 6, 12, or 24 h and were stained using the Hoechst/PI solution. Morphology and fluorescence intensity were examined under a fluorescence microscope (magnification: ×200). (B) Quantification of the percentages of apoptotic cells. Error bars indicate the mean ± SD of three independent experiments (* p < 0.05, ** p < 0.01, and *** p < 0.001 indicate significant differences).

In series [3] the test system is HeLa cells. Briefly: Western blot of apoptotic proteins. The format is cell-based, human. On the procedure:
The results of the Western blot analysis were expressed as the relative ratio of the specific compound band compared with the internal reference.
For performing Western blot analysis, the cells were washed with PBS and lysis buffer (P0013B, Beyotime). After incubation on ice for 30 min, the homogenate was centrifuged at 12,000g for 15 min at 4 °C, and the supernatant was used for protein analysis. Protein concentration was determined using the BCA protein assay (P0012S, Beyotime, Beijing, China). Sodium dodecyl sulfate-polyacrylamide gel electrophoresis was performed using the Bio-Rad Mini-Protean Tetra System (Bio-Rad, Hercules, CA, US). The proteins on the gel were then transferred onto polyvinylidene fluoride membranes (PVDF, Millipore, Beijing, China) for 2 h at 200 mA and blocked for 2 h with 5% skim milk at room temperature to prevent nonspecific binding. The blots were probed with the indicated primary antibodies followed by horseradish peroxidase (HRP)-conjugated goat anti-rabbit or anti-mouse IgG (Beyotime). Rabbit anti-Bcl-2 and mouse anti-actin antibodies were purchased from Beyotime. Rabbit anti-Bax, anti-Caspass-3, and anti-PARP monoclonal antibodies were purchased from Cell Signaling Technology (Danvers, MA, USA).
Figure 4 Apoptotic effects of 4f on HeLa cells. (A) The effect of compound 4f on the expression levels of Bax, Bcl-2, Caspase 3, and cle-PARP in HeLa cells was analyzed using Western blotting. (B) Densitometric quantification. * p < 0.05, ** p < 0.01, and *** p < 0.001 relative to the control group (0 h). Bcl-2, B-cell lymphoma 2; Bax, […]; cle-PARP, cleaved poly ADP-ribose polymerase.

In series [1], `CCc1nccn1-c1ccccc1` [II, 2-ethyl-1-phenyl-1H-imidazole] registered an IC50 of 100 to 300 µM.

In the case of `O=c1[nH]cc(F)c(=O)[nH]1` [Compound 5-FU, 5-fluorouracil, reference compound], the IC50 in the series with SGC-7901 turned out to be 16.4 ± 0.88 µM; in the series with HeLa, 18.3 ± 1.52 µM; in the series on L-02, 74.7 ± 7.85 µM; in the series on A549 it was 22.6 ± 2.59 µM. For the same compound, the “Selectivity Index A549” value with L-02 was 3.30. Further, in the series on L-02, the “Selectivity Index HeLa” value is on record as 4.08. Besides, in the series on L-02, the “Selectivity Index SGC-7901” value was 4.57. This compound returned an apoptosis rate with HeLa cells [2] of 39.6%.

For the compound `CCc1nccn1-c1ccc(NC(=O)CCC(=O)Nc2ccc(Br)cc2)cc1` [Compound 4f, 1-(4-(3-(4-Br-Phenylcarbamoyl)propionamide)phenyl)-2-ethyl Imidazol], in the series on SGC-7901, the IC50 was 5.37 ± 0.85 µM. Inhibition with HeLa was half-maximal at 3.24 ± 0.23 µM (IC50). In addition, in the series with L-02, half-maximal inhibition (IC50) was put at 152 ± 10.8 µM, the “Selectivity Index A549” value is 23.03, the “Selectivity Index HeLa” value came to 46.92 and the “Selectivity Index SGC-7901” value is 28.31. In the series on L-02 (range over the three tumor cell lines), the “Selectivity index, tolerance of normal L-02 cells versus tumor cells” value is reported as 23–46 fold. This compound displayed an IC50 with A549 of 6.6 ± 0.36 µM. Moreover, in the series with HeLa cells [3] (3.24 µM, time-dependent 3–24 h), the “expression of Bcl-2” value is “decreased” and the “expression of the Bax protein” value is on record as “significantly increased”. In the series with HeLa cells [3] (24 h after treatment, 4f 3.24 µM), this compound displayed a Caspase-3 expression increase of 134.3%. Besides, the apoptosis rate in the series with HeLa cells [2] worked out at 68.2%.

Compound `CCc1nccn1-c1ccc(NC(=O)CCC(=O)NCc2ccc(Cl)cc2)cc1` [Compound 4l, 1-(4-(3-(4-Cl-Benzylcarbamoyl)propionamide)phenyl)-2-ethyl Imidazol] had a melting point of 138 to 142 °C. The midpoint of inhibition with SGC-7901, the IC50, lay at 8.39 ± 1.11 µM. This compound returned an IC50 in the series on HeLa of 7.04 ± 1.07 µM. Also, in the series with L-02, the IC50 worked out at 114 ± 16.7 µM, the “Selectivity Index A549” value is reported as 10.36, the “Selectivity Index HeLa” value is on record as 16.13 and the “Selectivity Index SGC-7901” value came to 13.53. For the same compound, 11 ± 1.31 µM corresponded to half-maximal inhibition in the series on A549 (IC50).

One may read the IC50 as the midpoint of a concentration-inhibition curve. A lower IC50 goes with greater potency in that assay. One may read the melting point as the temperature, or range, at which the solid turns liquid.
